ChEMBL document CHEMBL1144431, “6-Hydroxy-1,2,3,4-tetrahydro-isoquinoline-3-carboxylic acid mimics active conformation of tyrosine in opioid peptides” (Bioorg Med Chem Lett, 2005)
Residues, ends and D or L forms follow the SMILES beside them.

Tests used:
Mu-type opioid receptor = Mu-type opioid receptor (Rattus norvegicus, UniProt P33535); assay: Inhibition of [3H]naloxone binding to rat brain homogenate Opioid receptor mu
[1] = biological target: Delta-type opioid receptor (Rattus norvegicus, UniProt P33533); assay: Inhibition of [3H]naloxone binding to rat brain homogenate Opioid receptor delta
Delta-type opioid receptor, sequence (P33533 whole entry): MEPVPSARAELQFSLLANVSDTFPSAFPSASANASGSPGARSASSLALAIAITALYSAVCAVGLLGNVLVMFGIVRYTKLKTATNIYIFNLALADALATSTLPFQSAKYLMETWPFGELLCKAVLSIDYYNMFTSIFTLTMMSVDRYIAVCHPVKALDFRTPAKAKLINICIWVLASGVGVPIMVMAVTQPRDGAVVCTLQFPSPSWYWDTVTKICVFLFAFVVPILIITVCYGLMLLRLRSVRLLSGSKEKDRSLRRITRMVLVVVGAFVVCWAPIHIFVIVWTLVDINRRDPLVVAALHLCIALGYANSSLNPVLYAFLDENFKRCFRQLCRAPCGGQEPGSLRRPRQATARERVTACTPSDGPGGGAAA

Mu-type opioid receptor, sequence (P33535 whole entry): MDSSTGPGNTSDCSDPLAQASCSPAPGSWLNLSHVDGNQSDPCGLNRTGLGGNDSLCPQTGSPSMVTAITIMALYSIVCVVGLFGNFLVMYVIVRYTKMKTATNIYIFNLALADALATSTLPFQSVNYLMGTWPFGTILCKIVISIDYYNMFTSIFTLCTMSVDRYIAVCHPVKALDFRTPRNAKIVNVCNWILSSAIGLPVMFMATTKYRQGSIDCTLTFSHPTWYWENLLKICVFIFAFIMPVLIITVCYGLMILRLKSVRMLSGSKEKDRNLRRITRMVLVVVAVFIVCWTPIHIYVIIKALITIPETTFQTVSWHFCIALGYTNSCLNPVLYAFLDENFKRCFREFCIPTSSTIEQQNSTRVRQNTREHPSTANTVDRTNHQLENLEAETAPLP

| Compound | Ki (Mu-type opioid receptor) | Ki [1] |
| --- | --- | --- |
| C[C@@H](NC(=O)[C@@H](N)Cc1ccc(O)cc1)C(=O)N[C@@H](Cc1ccccc1)C(=O)NCC(=O)N[C@@H](Cc1ccc(O)cc1)C(=O)N1CCC[C@H]1C(=O)N[C@@H](CO)C(N)=O [DERMORPHIN] | 2.4 nM | – |
| C[C@@H](NC(=O)[C@@H]1Cc2cc(O)ccc2CN1)C(=O)N[C@@H](Cc1ccccc1)C(=O)N[C@@H](Cc1ccccc1)C(N)=O | 57.8 nM | > 10000 nM |
| C[C@@H](NC(=O)[C@@H]1Cc2ccc(O)cc2CN1)C(=O)N[C@@H](Cc1ccccc1)C(=O)NCC(=O)N[C@@H](Cc1ccc(O)cc1)C(=O)N1CCC[C@H]1C(=O)N[C@@H](CO)C(N)=O | 1620 nM | > 10000 nM |
| C[C@@H](NC(=O)[C@@H]1Cc2cc(O)ccc2CN1)C(=O)N[C@@H](Cc1ccccc1)C(=O)NCC(=O)N[C@@H](Cc1ccc(O)cc1)C(=O)N1CCC[C@H]1C(=O)N[C@@H](CO)C(N)=O | 253 nM | > 10000 nM |
| CC(C)[C@H](NC(=O)[C@H](CC(=O)O)NC(=O)[C@H](Cc1ccccc1)NC(=O)[C@@H](C)NC(=O)[C@@H]1Cc2cc(O)ccc2CN1)C(=O)N[C@H](C(=O)NCC(N)=O)C(C)C | > 10000 nM | 10.4 nM |
| CC(C)[C@H](NC(=O)[C@H](CC(=O)O)NC(=O)[C@H](Cc1ccccc1)NC(=O)[C@@H](C)NC(=O)[C@@H](N)Cc1ccc(O)cc1)C(=O)N[C@H](C(=O)NCC(N)=O)C(C)C [DELTORPHIN C] | 1700 nM | 0.73 nM |
| NC(=O)[C@H](Cc1ccccc1)NC(=O)[C@H](Cc1ccccc1)NC(=O)[C@@H]1CCCN1C(=O)[C@@H]1Cc2cc(O)ccc2CN1 | 216 nM | > 10000 nM |
| CC(C)[C@H](NC(=O)[C@H](CC(=O)O)NC(=O)[C@H](Cc1ccccc1)NC(=O)[C@@H](C)NC(=O)[C@@H]1Cc2ccc(O)cc2CN1)C(=O)N[C@H](C(=O)NCC(N)=O)C(C)C | > 10000 nM | 304 nM |
| C[C@@H](NC(=O)[C@@H](N)Cc1ccc(O)cc1)C(=O)N[C@@H](Cc1ccccc1)C(=O)N[C@@H](Cc1ccccc1)C(N)=O (HELM PEPTIDE1{Y.[dA].F.F.[am]}$$$$V2.0) | – | 1820 nM |
